This note sets out measurements from ChEMBL document CHEMBL6121042, “Isolation of Antiplasmodial Oxazoles and Isoflavonoids from the Roots of Oxytropis trichophysa and Total Synthesis of Oxazole-type Alkaloids” (J Nat Prod, 2025).

Broadly, the CC50 is the concentration at which the toxic effect on the cells reaches its halfway point. A word on the pIC50: it is the IC50 on a negative log10 scale, so that one unit is a factor of ten.

One data set deals with Plasmodium falciparum. As to the kind of experiment: Antiplasmodial activity against Plasmodium falciparum 3D7 infected in red blood cells assessed as parasitic growth inhibition incubated for 72 hrs by SYBR Green I staining based analysis. The data set is classed as functional, organism-based. As to conditions: for pIC50: 3D7, 72 h.
Data set [1] in a line: Cytotoxicity against human HFF cells assessed as reduction in cell viability incubated for 72 hrs by CCK-8 assay. The data set is classed as toxicity, cell-based.
Data set [2] can be described thus: Selectivity index, ratio of CC50 for human HFF cells to IC50 for Plasmodium falciparum 3D7. Format: toxicity, cell-based. As to conditions: read-out: Selectivity Index.

SMILES strings stand for the structures. pIC50: −log10 of the molar value. Activity calls are given as the source filed them. No cut-off for these calls is given here.

In the case of `COc1cc([C@@H]2COc3cc(O)ccc3C2)c(O)c(OC)c1OC`, in the data set on Plasmodium falciparum, the outcome was inactive.
On to `COc1ccc([C@@H]2COc3cc(O)ccc3C2)c(O)c1OC`, for which the result with Plasmodium falciparum was inactive.
Take `COc1c(O)cc([C@@H]2COc3cc(O)ccc3C2)c(O)c1OC`: in data set [1], the CC50 at 72 h came out at 5.6 µM. In addition, the selectivity ratio in data set [2] is 0.9. Moreover, the negative-log IC50 (pIC50) in the data set on Plasmodium falciparum is 5.21.
As to `COc1ccc([C@@H]2COc3cc(O)ccc3C2)c(OC)c1O`, the result in the data set with Plasmodium falciparum was inactive.
On to `C[C@@H]1CC[C@H]2[C@@H](C)C(=O)O[C@@H]3O[C@@]4(C)CC[C@@H]1[C@]32OO4` [ARTEMISININ], for which the half-maximal cytotoxic concentration (CC50) at 72 h in data set [1] is more than 200 µM. For the same compound, in data set [2], the selectivity ratio was more than 7890. Moreover, the pIC50 in the data set on Plasmodium falciparum was 7.60.
In the case of `COc1ccc2c(c1OC)O[C@H]1c3ccc(O)cc3OC[C@@H]21`, the result with Plasmodium falciparum was inactive.
Turning to `Oc1cccc(-c2cnc(-c3ccccc3)o2)c1O`, the 50% cytotoxic concentration (CC50) at 72 h in data set [1] turned out to be 8.5 µM. In data set [2], the selectivity ratio came to 2.7. Further, the pIC50 with Plasmodium falciparum was 5.51.
The matching figures for `Oc1ccccc1-c1cnc(-c2ccccc2)o1`: more than 100 µM, more than 18.8 and 5.34.
Regarding `COc1c(O)cc2c(c1OC)O[C@H]1c3ccc(O)cc3OC[C@@H]21`, the outcome in the data set with Plasmodium falciparum was inactive.
As for `Oc1ccc(O)c(-c2cnc(-c3ccccc3)o2)c1`, in data set [1], the CC50 at 72 h stood at 69.3 µM. Moreover, the selectivity ratio in data set [2] worked out at 9.4. Also, in the data set on Plasmodium falciparum, the pIC50 was 5.26.
In the case of `COC1=C(OC)C(=O)C([C@@H]2COc3cc(O)ccc3C2)=CC1=O`, the CC50 at 72 h in data set [1] came out at 13.7 µM. Also, the selectivity ratio in data set [2] amounted to 2.3. The pIC50 with Plasmodium falciparum was 5.24.
The matching figures for `c1ccc(COc2ccc(-c3ncc(-c4ccccc4OCc4ccccc4)o3)cc2)cc1`: 72 µM, 14.8 and 5.32.
